According to article PMC12373846, “Hemoglobin as a pseudoperoxidase and drug target for oxidative stress-related diseases” (Signal Transduction and Targeted Therapy, 2025):
Like-named read-outs stand apart in the source and are kept apart here.

What was measured:
[1] = Solubility in aqueous solutions (statement); type: physicochemical
Hb = molecular target: T1, Hb (Homo sapiens, UniProt P68871); assay: Bubbling liberation (oxygen release) with Hb; type: biochemical; details: Hb + H2O2, Fig. 2g
T1 construct: purchased Sigma-Aldrich H7379
Procedure: (§1) The effects of bubbling with DMSO, HTPEB, and KDS12025 were evaluated. To measure the degree of bubbling quantitatively, the reactions were conducted in sealed tubes connected to an inverted cylinder submerged in a water bath to record the time and volume of the bubbles produced. […] Vehicle, HTPEB, and KDS12025 were added to assess their effects. A similar procedure was followed for Hb.

PAMPA BBB permeability = type: in vitro ADME; details: for Papp at 4 h, 50 μM: PAMPA, pH 7.4, 50 μM
Procedure: A parallel artificial membrane permeability assay (PAMPA)^70 was performed to validate the blood-brain barrier permeability of KDS12025. The procedure began by preparing a donor solution of the compound in a pH 7.4 donor buffer. This solution was added to the wells of a deep well plate, followed by the addition of a high-sensitivity UV plate filled with donor buffer to serve as the blank sample. An initial sample for the UV plate was taken to establish a baseline reading. The PAMPA sandwich was then assembled by adding the donor plate mixture to the donor plate well, followed by placing a BBB-lipid coated membrane on top and an acceptor plate filled with acceptor buffer. This setup was incubated at 25 °C for a specific duration to allow diffusion. Post-incubation, a sample from the acceptor plate was taken, and the UV absorbance was measured to determine the permeated amount of the test compound. The permeability was then calculated using the PAMPA explorer program, considering the initial donor concentration and the acceptor's concentration after incubation.

CAT = assay: Bubbling liberation (oxygen release) with CAT; type: biochemical; details: CAT + H2O2, Fig. 2g
Procedure: as §1

HRP [2] = molecular target: T2, HRP (Armoracia rusticana, UniProt P00433); assay: ROS-Glo H2O2 assay with HRP; type: biochemical, horseradish; details: for fold change in H2O2 decomposition by HRP: 30-min window, Fig. 2b
T2 sequence (P00433 31-353): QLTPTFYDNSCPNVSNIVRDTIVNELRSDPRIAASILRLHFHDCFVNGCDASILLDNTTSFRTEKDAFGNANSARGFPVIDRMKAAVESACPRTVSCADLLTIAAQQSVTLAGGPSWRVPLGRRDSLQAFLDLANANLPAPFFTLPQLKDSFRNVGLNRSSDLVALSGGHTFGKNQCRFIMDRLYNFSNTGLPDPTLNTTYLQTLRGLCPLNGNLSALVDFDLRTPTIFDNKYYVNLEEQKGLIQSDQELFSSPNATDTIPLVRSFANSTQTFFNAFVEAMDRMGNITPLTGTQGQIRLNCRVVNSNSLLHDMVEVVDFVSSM
Procedure: Hb (Sigma‒Aldrich, H7379), H2O2 (Sigma‒Aldrich, H1009), and Amplex Red reagents (Invitrogen, A12222) were obtained for the study. A 4 μM H2O2 solution was prepared in 50 mM sodium phosphate buffer (pH 7.2). Then, 49 μl of this mixture was mixed with 1 μl of the test compound in DMSO or distilled water. The mixture was combined with an assay mixture of Amplex Red reagent (20 mM stock to 0.1 mM) and HRP (200 U/ml stock to 0.2 U/ml) and added to the wells at 50 μl/well. After a 60-min incubation at 37 °C, resorufin production was quantified via a microplate fluorescence reader (SpectraMax iD5, Molecular Devices) at ex/em = 535/580 nm. […] For the ROS-Glo assay, the H2O2 substrate solution and ROS-Glo detection solution were prepared according to the manufacturer’s instructions. 10 μM H2O2 and drugs were prepared as in the Amplex Red assay, with HRP, Hb, CAT, or GPx added as needed. The mixture was added to the wells at 100 μl/well and incubated for 60 min at 37 °C. H2O2 substrate solution was added, and the mixture was incubated at room temperature for 30 min. After the H2O2 substrate solution was added and incubated at room temperature for 30 min, the ROS-Glo detection solution was added, and the mixture was incubated for 15 min. Luminescence was measured via iD5 microplate readers. […] The U/ml was calculated on the basis of the amount of H2O2 reduced by Hb during the reaction, using μg/ml and U/mg.
To evaluate the extent of peroxidase function facilitation by HTPEB (1 μM) and KDS12025 (1 μM) in HRP (0.2 U/ml) and Hb (10 μg/ml), we used the ROS-Glo assay over 30 and 60 min. The fold change was calculated by dividing the delta values during the 30-min reaction for the vehicle over drug conditions.

GPx = GPx colorimetric assay; type: biochemical; details: standard GPx assay
Procedure: To assess the GPx activity, the reaction was prepared in a 96-well plate by adding glutathione reductase and glutathione solution, GPx enzyme (5µl, final concentration 60 U/ml), and the drug (1 µl of KDS12025 and HTEPB) to a total volume of 100 µl per well, followed by manufactural protocol (Abcam, ab102530). The plate was incubated at room temperature for 15 min to allow pre-reactions and drug interactions to occur. Following the incubation, the reaction was initiated by adding cumene hydroperoxide as the substrate to each well. The absorbance at 340 nm was measured in kinetic mode for 10–20 min, and the rate of NADPH consumption was used to calculate GPx activity, reflecting the enzyme’s ability to reduce the hydroperoxide substrate in the presence of the test compound.

[3] = DPPH radical scavenging assay; details: Fig. S1e
Procedure: In a 96-well microplate, samples (20 μl) at concentrations ranging from 0.1 to 100 μM were mixed with 80 μL of 50 mM sodium phosphate buffer (pH 7.2) and 100 μL of DPPH (1,1-diphenyl-2-picrylhydrazyl) solution (250 μM in methanol) and incubated for 30-min in the dark. Each sample was quantified using a microplate fluorescence reader (SpectraMax iD5, Molecular Devices) at absorbance (517 nm). Edaravone was used as a positive control. The radical scavenging activity was estimated using the following equation: sample absorbance / control absorbance ×100. The dose-response curve, EC50 for the DPPH, was calculated and determined by fitting data with GraphPad Prism software. The fitting method had no special handling of outliers.

HRP [4] = molecular target: T2, HRP; assay: Bubbling liberation (oxygen release) with HRP; type: biochemical, horseradish; details: HRP + H2O2, Fig. 2g
Procedure: as §1

[5] = read-out: BCS code: permeability classification

T1 sequence (P68871 2-147 limits assumed): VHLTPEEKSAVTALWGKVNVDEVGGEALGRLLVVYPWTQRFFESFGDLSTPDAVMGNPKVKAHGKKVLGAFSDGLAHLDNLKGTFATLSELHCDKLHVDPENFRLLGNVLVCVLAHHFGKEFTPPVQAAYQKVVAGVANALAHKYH
T1 sequence (P69905 2-142 partner limits assumed): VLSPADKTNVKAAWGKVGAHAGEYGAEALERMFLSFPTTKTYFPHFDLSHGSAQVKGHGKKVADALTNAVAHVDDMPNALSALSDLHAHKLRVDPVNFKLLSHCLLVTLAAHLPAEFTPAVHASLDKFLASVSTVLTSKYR

Row | Pe (PAMPA BBB permeability) (PAMPA BBB permeability; 50 μM, 4 h, U.V) | EC50 (HRP [2]; Fig. 1e, read-out: EC50, ROS-Glo assay with replenishing HRP) [µM] | tau value, reaction time-response of HRP with HTPEB (HRP [2]; Fig. S1b) [min] | Structure (SMILES) | solubility in water / aqueous solutions [1] | bubbles per 1 × 1 mm^2 area (Hb) | BCS code: CNS +/- classification (PAMPA BBB permeability; 50 μM, 4 h) | Papp at 4 h, 50 μM (PAMPA BBB permeability; U.V, read-out: Pe (PAMPA BBB permeability)) [×10⁻⁶ cm/s] | Papp at 4 h, 50 μM (PAMPA BBB permeability; [5]) [×10⁻⁶ cm/s] | bubbles per 1 × 1 mm^2 area (CAT) | fold change in H2O2 decomposition by HRP (HRP [2]) | effect on GPx activity (GPx) | IC50 [3] [µM] | bubbles per 1 × 1 mm^2 area (HRP [4])
1 | – | – | – | CNc1ccc(NCCc2ccccc2OC)cc1.Cl [KDS12025, N^1-(2-methoxyphenethyl)-N^4-methylbenzene-1,4-diamine hydrochloride salt] | highly water soluble | 13.5±2.533 | + (> 10) | 67.4 | > 0.4 | 92.0±6.622 | 5.642±0.5747 | did not affect other peroxidases | 155 | 7.3±0.947
2 | 3.56 10^-6cm/sec | 2.5 | 8.57 | O=C(O)c1cc(NCCc2ccc(C(F)(F)F)cc2)ccc1O [HTPEB, 2-hydroxy-5-[2-(4-trifluoromethyl-phenyl)-ethylamino]-benzoic acid, reference compound] | poor | 12.5±3.969 | - (< 10) | – | > 0.4 | 84.5±9.957 | 3.769±0.7911 | no enhancement | 19.2 | 9.0±1.0
